Experimental data as given in US20260007758A1, “SO[…]-2 RECEPTOR (SST2R) NON-PEPTIDE DRUG CONJUGATES AND USES THEREOF” (Crinetics Pharmaceuticals, Inc., priority 2024, published 2026).

Tests used:
Type in all cases: cell-based
SST2 = biological target: T1, SST2 (Homo sapiens, UniProt P30874); assay: PathHunter CHO-K1 SST2 Internalization Assay; settings: PathHunter CHO-K1 SST2 cells; 90 min at 37 C; luminescence; read-out: Internalization EC50
T1 construct: host or cells: PathHunter CHO-K1 SST2 cells
Outline: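 Four-parameter nonlinear fits of background-corrected luminescence (duplicate means) gave IC50s. NDCs were serially diluted 1:3 over 11 points from a 10 uM final top concentration and incubated 90 min at 37 C with human SST2 CHO-K1 cells plated 48 h earlier at 2500/well. Beta-Glo read-out developed 60 min at RT.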

[1] = test system: NCI-H524 human small cell lung cancer cells; assay: H524 assay: inhibition of cell proliferation (CellTiter Glo); settings: 2 h treatment, washout, additional 70 h incubation
Outline: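 Proliferation was measured by CellTiter Glo 70 h after a washout that followed a 2 h pulse of NDC. Doses were an 11-point, two-fold dilution series from 1 uM. IC50 was fitted with a four-parameter model to luminescence-based % inhibition relative to control cells.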

[2] = biological target: T2, human somatostatin receptor subtype 2 (Homo sapiens, UniProt P30874); assay: Functional assay for SSTR2 agonists (HTRF cAMP); settings: CHO-K1 cells stably expressing human SST2; NKH477-stimulated cAMP; 20 min at 37 C; read-out: hSST2 cAMP Avg EC50
T2 construct: expressed in transfected cells
Outline: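 Agonist activity read as fall in intracellular cAMP: HTRF 665/620 nm ratio regressed to a cAMP standard curve, EC50 fitted. Stable human SSTR2 CHO-K1 cells exposed 20 min at 37 °C to compound, final concentrations typically 0-10,000 nM.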

T2 sequence (P30874 whole entry): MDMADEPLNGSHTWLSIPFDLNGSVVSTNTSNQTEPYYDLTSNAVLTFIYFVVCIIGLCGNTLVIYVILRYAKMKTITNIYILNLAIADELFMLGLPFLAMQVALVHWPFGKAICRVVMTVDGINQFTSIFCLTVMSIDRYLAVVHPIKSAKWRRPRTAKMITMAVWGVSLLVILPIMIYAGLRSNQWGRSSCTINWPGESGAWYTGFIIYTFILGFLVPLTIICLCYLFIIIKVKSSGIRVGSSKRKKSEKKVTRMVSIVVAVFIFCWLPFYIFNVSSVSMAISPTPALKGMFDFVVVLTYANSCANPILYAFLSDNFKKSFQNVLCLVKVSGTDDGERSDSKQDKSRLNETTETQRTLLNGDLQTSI
T1 sequence (P30874 whole entry): as above

Row | SMILES | EC50 (SST2) | EC50 [1] | EC50 [2]
1 | CC[C@H](C)[C@@H]([C@@H](CC(=O)N1CCC[C@H]1[C@H](OC)[C@@H](C)C(=O)N[C@H](C)[C@@H](O)c1ccccc1)OC)N(C)C(=O)[C@@H](NC(=O)[C@H](C(C)C)N(C)C(=O)OCc1ccc(NC(=O)[C@H](CCCNC(N)=O)NC(=O)[C@@H](NC(=O)[C@H](CCC(=O)O)NC(=O)CCOCCC(=O)NCCNc2ncc(-c3cc(C)cc(F)c3)c(N3CC[C@H]4NCCC[C@@H]4C3)c2-c2nc3ccc(Cl)cc3[nH]2)C(C)C)cc1C(=O)NCCN)C(C)C [Compound 80] | 920 nM | 540 nM | 180 nM
2 | CC[C@H](C)[C@@H]([C@@H](CC(=O)N1CCC[C@H]1[C@H](OC)[C@@H](C)C(=O)N[C@H](C)[C@@H](O)c1ccccc1)OC)N(C)C(=O)[C@@H](NC(=O)[C@H](C(C)C)N(C)C(=O)OCc1ccc(NC(=O)[C@H](CCCNC(N)=O)NC(=O)[C@@H](NC(=O)C2(C(=O)NCCOCCC(=O)NCCNc3ncc(-c4cc(C)cc(F)c4)c(N4CCC(N)CC4)c3-c3nc4ccc(Cl)cc4[nH]3)CCC2)C(C)C)cc1C(=O)NCCN)C(C)C [Compound 81] | 10 nM | 2 nM | 0.094 nM
3 | CC[C@H](C)[C@@H]([C@@H](CC(=O)N1CCC[C@H]1[C@H](OC)[C@@H](C)C(=O)N[C@H](C)[C@@H](O)c1ccccc1)OC)N(C)C(=O)[C@@H](NC(=O)[C@H](C(C)C)N(C)C(=O)OCc1ccc(NC(=O)[C@H](C)NC(=O)[C@@H](NC(=O)C2(C(=O)NCCOCCC(=O)NCCNc3ncc(-c4cc(C)cc(F)c4)c(N4CCC(N)CC4)c3-c3nc4ccc(Cl)cc4[nH]3)CCC2)C(C)C)cc1C(=O)NCCN)C(C)C [Compound 82] | 13 nM | 6.6 nM | 0.26 nM
4 | CC[C@H](C)[C@@H]([C@@H](CC(=O)N1CCC[C@H]1[C@H](OC)[C@@H](C)C(=O)N[C@H](C)[C@@H](O)c1ccccc1)OC)N(C)C(=O)[C@@H](NC(=O)[C@H](C(C)C)N(C)C(=O)OCc1ccc(NC(=O)[C@H](CCCNC(N)=O)NC(=O)[C@@H](NC(=O)CCOCCOCCC(=O)NCCNc2ncc(-c3cc(C)cc(F)c3)c(N3CCC(N)CC3)c2-c2nc3ccc(Cl)cc3[nH]2)C(C)C)cc1C(=O)NCCNC(=O)CCCCCCCCCCC(=O)O)C(C)C [Compound 83] | 7 nM | 310 nM | 0.53 nM
5 | CC[C@H](C)[C@@H]([C@@H](CC(=O)N1CCC[C@H]1[C@H](OC)[C@@H](C)C(=O)N[C@H](C)[C@@H](O)c1ccccc1)OC)N(C)C(=O)[C@@H](NC(=O)[C@H](C(C)C)N(C)C(=O)OCc1ccc(NC(=O)[C@H](CCCNC(N)=O)NC(=O)[C@@H](NC(=O)[C@H](CCc2nnn[nH]2)NC(=O)CCOCCC(=O)NCCNc2ncc(-c3cc(C)cc(F)c3)c(N3CCC(N)CC3)c2-c2nc3ccc(Cl)cc3[nH]2)C(C)C)cc1C(=O)NCCN)C(C)C [Compound 84] | 3.8 nM | 580 nM | 0.28 nM
6 | CC[C@H](C)[C@@H]([C@@H](CC(=O)N1CCC[C@H]1[C@H](OC)[C@@H](C)C(=O)N[C@H](C)[C@@H](O)c1ccccc1)OC)N(C)C(=O)[C@@H](NC(=O)[C@H](C(C)C)N(C)C(=O)OCc1ccc(NC(=O)[C@H](CCCNC(N)=O)NC(=O)[C@@H](NC(=O)[C@H](Cc2c[nH]c3ccccc23)NC(=O)CCOCCC(=O)NCCNc2ncc(-c3cc(C)cc(F)c3)c(N3CCC(N)CC3)c2-c2nc3ccc(Cl)cc3[nH]2)C(C)C)cc1C(=O)NCCN)C(C)C [Compound 85] | 3.6 nM | 73 nM | 0.72 nM
7 | CC[C@H](C)[C@@H]([C@@H](CC(=O)N1CCC[C@H]1[C@H](OC)[C@@H](C)C(=O)N[C@H](C)[C@@H](O)c1ccccc1)OC)N(C)C(=O)[C@@H](NC(=O)[C@H](C(C)C)N(C)C(=O)OCc1ccc(NC(=O)[C@H](CCCNC(N)=O)NC(=O)[C@@H](NC(=O)CCOCCOCCOCCOCCC(=O)NCCNc2ncc(-c3cc(C)cc(F)c3)c(N3CCC(N)CC3)c2-c2nc3ccc(Cl)cc3[nH]2)C(C)C)cc1C(=O)NCC(=O)O)C(C)C [Compound 86] | 4.1 nM | 1000 nM | 0.068 nM
8 | CC[C@H](C)[C@@H]([C@@H](CC(=O)N1CCC[C@H]1[C@H](OC)[C@@H](C)C(=O)N[C@H](C)[C@@H](O)c1ccccc1)OC)N(C)C(=O)[C@@H](NC(=O)[C@H](C(C)C)N(C)C(=O)OCc1ccc(NC(=O)[C@H](CCCNC(N)=O)NC(=O)[C@@H](NC(=O)CCOCCC(=O)NCCNc2ncc(-c3cc(C)cc(F)c3)c(N3CCC(N)CC3)c2-c2nc3ccc(Cl)cc3[nH]2)C(C)C)cc1C(=O)NOC)C(C)C [Compound 87] | 4.6 nM | 600 nM | 0.1 nM
9 | CC[C@H](C)[C@@H]([C@@H](CC(=O)N1CCC[C@H]1[C@H](OC)[C@@H](C)C(=O)N[C@H](C)[C@@H](O)c1ccccc1)OC)N(C)C(=O)[C@@H](NC(=O)[C@H](C(C)C)N(C)C(=O)OCc1ccc(NC(=O)[C@H](CCCNC(N)=O)NC(=O)[C@@H](NC(=O)CCOCCC(=O)NCCNc2ncc(-c3cc(C)cc(F)c3)c(N3CCC(N)CC3)c2-c2nc3ccc(Cl)cc3[nH]2)C(C)C)cc1C(=O)NOCCN)C(C)C [Compound 88] | 3.1 nM | 84 nM | 0.25 nM
10 | CC[C@H](C)[C@@H]([C@@H](CC(=O)N1CCC[C@H]1[C@H](OC)[C@@H](C)C(=O)N[C@H](C)[C@@H](O)c1ccccc1)OC)N(C)C(=O)[C@@H](NC(=O)[C@H](C(C)C)N(C)C(=O)OCc1ccc(NC(=O)[C@H](CCCNC(N)=O)NC(=O)[C@@H](NC(=O)[C@H](CCC(=O)O)NC(=O)CCOCCC(=O)NCCNc2ncc(-c3cc(C)cc(F)c3)c(N3CCC(N)CC3)c2-c2nc3ccc(Cl)cc3[nH]2)C(C)C)cc1C(=O)NOC)C(C)C [Compound 89] | 3.6 nM | 1100 nM | 0.57 nM
11 | CC[C@H](C)[C@@H]([C@@H](CC(=O)N1CCC[C@H]1[C@H](OC)[C@@H](C)C(=O)N[C@H](C)[C@@H](O)c1ccccc1)OC)N(C)C(=O)[C@@H](NC(=O)[C@H](C(C)C)N(C)C(=O)OCc1ccc(NC(=O)[C@H](CCCNC(N)=O)NC(=O)[C@@H](NC(=O)[C@H](CCC(=O)O)NC(=O)CCOCCC(=O)NCCNc2ncc(-c3cc(C)cc(F)c3)c(N3CCC(N)CC3)c2-c2nc3ccc(Cl)cc3[nH]2)C(C)C)cc1C(=O)NOCCN)C(C)C [Compound 90] | 5.5 nM | 480 nM | 0.66 nM
12 | CC[C@H](C)[C@@H]([C@@H](CC(=O)N1CCC[C@H]1[C@H](OC)[C@@H](C)C(=O)N[C@H](C)[C@@H](O)c1ccccc1)OC)N(C)C(=O)[C@@H](NC(=O)[C@H](C(C)C)N(C)C(=O)OCc1ccc(NC(=O)[C@H](CCCNC(N)=O)NC(=O)[C@@H](NC(=O)[C@H](CCC(=O)O)NC(=O)CCOCCC(=O)NCCNc2ncc(-c3cc(C)cc(F)c3)c(N3CCC(N)CC3)c2-c2nc3ccc(Cl)cc3[nH]2)C(C)C)cc1C(=O)N1CC(N)C1)C(C)C [Compound 91] | 2.5 nM | 1000 nM | 0.46 nM
13 | CC[C@H](C)[C@@H]([C@@H](CC(=O)N1CCC[C@H]1[C@H](OC)[C@@H](C)C(=O)N[C@H](C)[C@@H](O)c1ccccc1)OC)N(C)C(=O)[C@@H](NC(=O)[C@H](C(C)C)N(C)C(=O)OCc1ccc(NC(=O)[C@H](CCCNC(N)=O)NC(=O)[C@@H](NC(=O)C[C@@H](N)C(=O)NCCOCCC(=O)NCCNc2ncc(-c3cc(C)cc(F)c3)c(N3CCC(N)CC3)c2-c2nc3ccc(Cl)cc3[nH]2)C(C)C)c(O[C@@H]2O[C@H](C(=O)O)[C@@H](O)[C@H](O)[C@H]2O)c1)C(C)C [Compound 92] | 2.5 nM | 680 nM | 0.2 nM
14 | CC[C@H](C)[C@@H]([C@@H](CC(=O)N1CCC[C@H]1[C@H](OC)[C@@H](C)C(=O)N[C@H](C)[C@@H](O)c1ccccc1)OC)N(C)C(=O)[C@@H](NC(=O)[C@H](C(C)C)N(C)C(=O)OCc1ccc(NC(=O)[C@H](C)NC(=O)[C@@H](NC(=O)CCOCCN2CCC(C(=O)NCCNc3ncc(-c4cc(C)cc(F)c4)c(N4CCC(N)CC4)c3-c3nc4ccc(Cl)cc4[nH]3)CC2)C(C)C)c(O[C@@H]2O[C@H](C(=O)O)[C@@H](O)[C@H](O)[C@H]2O)c1)C(C)C [Compound 93] | 33 nM | 120 nM | 0.28 nM
15 | CC[C@H](C)[C@@H]([C@@H](CC(=O)N1CCC[C@H]1[C@H](OC)[C@@H](C)C(=O)N[C@H](C)[C@@H](O)c1ccccc1)OC)N(C)C(=O)[C@@H](NC(=O)[C@H](C(C)C)N(C)C(=O)OCc1ccc(NC(=O)[C@H](C)NC(=O)[C@@H](NC(=O)CCOCCC(=O)NCCNc2ncc(-c3cc(C)cc(F)c3)c(N3CCC(N)CC3)c2-c2nc3cc(F)c(F)cc3[nH]2)C(C)C)c(O[C@@H]2O[C@H](C(=O)O)[C@@H](O)[C@H](O)[C@H]2O)c1)C(C)C [Compound 108] | 8.2 nM | 52 nM | 0.18 nM
16 | CC[C@H](C)[C@@H]([C@@H](CC(=O)N1CCC[C@H]1[C@H](OC)[C@@H](C)C(=O)N[C@H](C)[C@@H](O)c1ccccc1)OC)N(C)C(=O)[C@@H](NC(=O)[C@H](C(C)C)N(C)C(=O)OCc1ccc(NC(=O)[C@H](C)NC(=O)[C@@H](NC(=O)CCOCCC(=O)NCCNc2ncc(-c3cc(C)cc(F)c3)c(N3CCC(N)CC3)c2-c2nc3c(F)c(F)ccc3[nH]2)C(C)C)c(O[C@@H]2O[C@H](C(=O)O)[C@@H](O)[C@H](O)[C@H]2O)c1)C(C)C [Compound 109] | 35 nM | 200 nM | 1.1 nM
